Data set [1] can be described thus: neutral red assay (NRA), drug-induced cytotoxicity. Format: cell-based, human. The note with it: human. The protocol:
(§1) Drug induced cytotoxicity in HFFs was measured as a reduction of cell viability determined by neutral red uptake assay (NRA), as described previously. Briefly, HFFs treated with compounds for 7 d were incubated with a final concentration of 40 μg/mL neutral red (Sigma Aldrich, St. Louis, MO, USA) for 3 h. Incorporated neutral red was released from the cells by incubation with destaining solution (50% ethanol, 49% H2O, 1% acetic acid) and subsequently quantitated in a microplate reader (PerkinElmer, Waltham, MA, USA) by fluorescence measurement using 560/630 nm for excitation/emission, respectively.

Data set [2] deals with CDK7. Kind of data set: confocal immunofluorescence quantitation of CDK7 signal in HFFs. The note with it: HCMV AD169-GFP-infected HFFs, 7 d; MBV 10 µM, LDC4297 0.1 µM, R25 1 µM, abemaciclib 1 µM; untreated mock-infected = 100%; mean ± SEM.
For data set [3], the system named is HCMV AD169-GFP. In words: antiviral drug treatment in wild-type HFFs. Conditions: WT HFFs.
Method: (§2) To achieve a transient knock-out of cyclin H, app. 1.5 × 10^5 HFFs/well were grown in 12-well culture plates and, starting the following day, incubated for 24 h with 0.5 mL of lentiviral supernatant (a mixture containing all six gRNAs described in 4.9) supplemented with 0.5 mL MEM and 7.5 µg/mL polybrene (Sigma Aldrich, St. Louis, MO, USA) per well. Virus supernatant was replaced by fresh media 24 h later and cells were used for infection experiments (see 4.5 and 4.6) on the following day.
(§3) 12-well culture plates and treated with lentiviral supernatants to achieve a CRISPR/C as9 -media ted
(§4) transient cyclin H knock-down. Subsequently, cells were dir ectly infected with HCMV AD169-GF P for
(§5) 90 min , then fresh medium, supplemented with indicated concentrations of compounds, was added. Cells
(§6) were harvested and lysed 7 d pos t-infection and vira l GFP reporter signa ls were measured in
(§7) quadruplicate. Data are presented as mean values of biological duplicates, adjusted in percent to the
(§8) respective solvent DMSO c on t r ol (ctrl ).
The subject of data set [4] is HCMV AD169-GFP. In words: confocal quantitation of GFP reporter signal in HFFs. Conditions: MBV 10 µM, LDC4297 0.1 µM, R25 1 µM, abemaciclib 1 µM; untreated infected = 100%, mock = 0%.
The test system of data set [5] is HCMV AD169-GFP. Kind of data set: Loewe additivity fixed-dose assay.
Method: (§9) Loewe additivity was assessed using an adapted protocol of the HCMV GFP-based replication assay [21, 61] described previously [1]. HFFs were seeded at app. 1.6 × 10^5 cells/well in 12-well culture plates (four plates per assay) and infected on the following day with HCMV AD169-GFP [61] in a dilution resulting in 25% GFP-positive cells at 7 d p.i. (i.e., 1× TCID25^7d). […] Standard protocol comprised a serial dilution of six concentrations/single compound, starting with app. 4–8 × EC50, and a 1:2 serial dilution of eight concentrations of the combination, starting with a combination of half of the highest concentrations of both single dilution series. All infections were performed in biological duplicates. Cells were lysed by the addition of 200 µL lysis buffer/well 7 d p.i., and cell suspensions were mixed and transferred to a 96-well plate. Centrifugation was performed at 3000 rpm for 15 min and clear lysates were subjected to automated GFP quantitation in a Victor X4 microplate reader (PerkinElmer, Waltham, MA, USA). Antiviral efficacy (mean of duplicate measurement of biological duplicates) was expressed as the percentage of solvent control and entered into the CompuSyn software (Version 1.0 [65]; ComboSyn, Inc., Paramus, NJ, USA). Only experiments with an r value > 0.90 and EC50 values close to previously determined concentrations were accepted.
Data set [6] deals with HCMV AD169-GFP. In words: antiviral drug treatment in cyclin H knock-out HFFs. Conditions: CycH KO HFFs.
Method: as §2, §3, §4, §5, §6, §7, §8
Data set [7] has as its system HCMV ΔUL97-GFP BAC213. In words: GFP replication assay with deletion mutant.
Method: Primary human foreskin fibroblasts (HFFs, derived from clinical samples, Children’s Hospital, Erlangen, Germany) were grown in Eagle’s minimal essential medium (MEM) supplemented with 1 × GlutaMAX^TM (both Thermo Fisher Scientific, Waltham, MA, USA), 10 μg/mL gentamicin and 10% fetal bovine serum (FBS, Capricorn, Ebsdorfergrund, Germany). […] Cultured cells were maintained at 37 °C, 5% CO2 and 80% humidity. All cell culture was regularly monitored for absence of mycoplasma contamination (Lonza™ Mycoalert™, Thermo Fisher Scientific, Waltham, MA, USA). […]
Loewe additivity was assessed using an adapted protocol of the HCMV GFP-based replication assay [21, 61] described previously [1]. […] Centrifugation was performed at 3000 rpm for 15 min and clear lysates were subjected to automated GFP quantitation in a Victor X4 microplate reader (PerkinElmer, Waltham, MA, USA). Antiviral efficacy (mean of duplicate measurement of biological duplicates) was expressed as the percentage of solvent control and entered into the CompuSyn software (Version 1.0 [65]; ComboSyn, Inc., Paramus, NJ, USA). Only experiments with an r value > 0.90 and EC50 values close to previously determined concentrations were accepted.
Data set [8] has as its system HCMV AD169-GFP. Conditions: for SI: selectivity index CC50/EC50.
Method: (§10) Primary human foreskin fibroblasts (HFFs, derived from clinical samples, Children’s Hospital, Erlangen, Germany) were grown in Eagle’s minimal essential medium (MEM) supplemented with 1 × GlutaMAX^TM (both Thermo Fisher Scientific, Waltham, MA, USA), 10 μg/mL gentamicin and 10% fetal bovine serum (FBS, Capricorn, Ebsdorfergrund, Germany). […] Cultured cells were maintained at 37 °C, 5% CO2 and 80% humidity. All cell culture was regularly monitored for absence of mycoplasma contamination (Lonza™ Mycoalert™, Thermo Fisher Scientific, Waltham, MA, USA). Recombinant HCMV AD169 expressing green fluorescent protein (AD169-GFP, [61]) and recombinant ORF-UL97-deleted HCMV AD169 expressing green fluorescent protein (ΔUL97-GFP BAC213 [48]) were used for in vitro replication assays.
as §9
For data set [9], the system named is mock-infected primary human foreskin fibroblasts (HFFs). Kind of data set: neutral red assay (NRA), drug-induced cytotoxicity. The format is cell-based. The note with it: single treatment; mock-infected HFFs, 7 d; mean ± SD. As to the method:
as §1

Data set [10] has as its system HCMV AD169-GFP. In words: microbe, parasite or virus in culture.
Method: as §10, §9
[11] abbreviates: Human betaherpesvirus 5, AD169, single treatment, HCMV AD169-GFP in HFFs, mean ± SD.
The mark [12] stands for this setting: mock-infected primary human foreskin fibroblasts (HFFs), single treatment, mock-infected HFFs, 7 d, mean ± SD, read-out: CC50.

This is an account of results in PMC8910733, “Cyclin-Dependent Kinases (CDKs) and the Human Cytomegalovirus-Encoded CDK Ortholog pUL97 Represent Highly Attractive Targets for Synergistic Drug Combinations” (International Journal of Molecular Sciences, 2022).

Values joined by “and” are separate entries in the source; they are usually repeats but may differ in a detail not shown here. Equal values may be shown once. Read-outs that look alike come from different tables or passages of the source.

For orientation: CC50 means the concentration at which the toxic effect on the cells reaches its halfway point. For `CCc1cnn2c(NCc3ccc[n+]([O-])c3)cc(N3CCCC[C@H]3CCO)nc12` [dinaciclib], the CC50 at 7 d in data set [1] was < 100 nM.

Turning to `CC(C)c1cnn2c(NCc3ccccc3)cc(NC[C@H]3CCNC[C@@H]3O)nc12` [samuraciclib], the CC50 at 7 d in data set [1] (single treatment, mock-infected HFFs, 7 d, mean ± SD, read-out: CC50) came out at 500 ± 210 nM.

Broadly, the EC50 is the concentration giving half of the maximal effect. Broadly, the EC90 is the concentration needed for an effect of 90%. `CC(C)c1cnn2c(NCc3ccccc3-n3cccn3)nc(OC3CCCNC3)nc12` (stereo not shown) [LDC4297]: the CDK7 intensity in data set [2] is listed as 172% ± 7%. Also, the “mean replication (in % solvent control)” value stood at 91% in data set [3] (0.003 µM); 23% in data set [3] (0.025 µM); 7% in data set [3] (0.1 µM); 85% in [6] (0.003 µM); 32% in data set [6] (0.025 µM); 4% in data set [6] (0.1 µM). Further, the “HCMV AD169-GFP-specific reporter signal (GFP intensity)” value in data set [4] is on record as “below 25%”. In addition, the EC50 was 13 nM and 9 nM and 16 nM in data set [5] (read-out: EC50 single drugs, single drug, run beside the combination of the same table section); 61 ± 8 nM in data set [7] (deletion mutant ΔUL97 BAC213 (Figure 5B)); 16 ± 5 nM in [8] (parental HCMV AD169-GFP, in parallel with ΔUL97 mutant (Figure 5A)); 9 ± 2 nM in data set [8] (single treatment, HCMV AD169-GFP in HFFs, mean ± SD). Besides, the EC90 in data set [5] (read-out: EC90 single drugs, single drug, run beside the combination of the same table section) was 97 nM and 147 nM and 88 nM and 124 nM. Further, the SI in data set [8] (single treatment) was >1000. For the same compound, the CC50 in data set [9] is > 10000 nM.

In the case of `Cc1c(Br)c(Br)c2c3c1nc(N1CCNCC1)n3CCC2` [SEL120], in [10] (setting [11]), the EC50 was 79 ± 1 nM. In [8] (single treatment), the SI turned out to be 75. Besides, the CC50 at 7 d in [1] (setting [12]) came to 5900 ± 3850 nM.

For the compound `CC(=O)N[C@@H]1CCC[C@H](C(=O)Nc2cc(-c3cnn4c3CC(C)(C)C4)c(Cl)cn2)C1` [AZD4573], in data set [1] (setting [12]), the 50% cytotoxic concentration (CC50) at 7 d came out at 350 ± 90 nM.

Turning to `CN1CCC(c2c(O)cc(O)c3c(=O)cc(-c4ccccc4Cl)oc23)C1CO` (stereo not shown) [riviciclib], the CC50 at 7 d in [1] (setting [12]) worked out at 1600 ± 60 nM.

For the compound `CC[C@H](Nc1nc(NCc2cnc(C)cc2C)c2ncn(C(C)C)c2n1)[C@@H](C)O` [CYC065], the CC50 at 7 d in data set [1] (setting [12]) is < 100 nM.

For `CC(C)Nc1nc2cc(Cl)c(Cl)cc2n1[C@H]1O[C@@H](CO)[C@H](O)[C@@H]1O` [MBV, maribavir], the “mean replication (in % solvent control)” value in data set [3] (0.31 µM) turned out to be 20%; in data set [3] (2.5 µM), 6%; in data set [3] (10 µM), 3%; in [6] (0.31 µM), 21%; in data set [6] (2.5 µM), 9%; in data set [6] (10 µM), 6%. In data set [4], the “HCMV AD169-GFP-specific reporter signal (GFP intensity)” value is reported as “below 25%”. The EC50 was > 20000 nM in data set [7] (Human betaherpesvirus 5); 220 ± 260 nM in data set [10] (Human betaherpesvirus 5, AD169, parental HCMV AD169-GFP, in parallel with ΔUL97 mutant (Figure 5A)); 350 ± 420 nM in data set [10] (setting [11]). Also, in data set [8] (single treatment), the SI is >250. For the same compound, the CC50 at 7 d in [1] (setting [12]) was > 100000 nM.

In data set [10] (setting [11]), `CC(C)(C)c1cnc(CSc2cnc(NC(=O)C3CCN(CC(=O)NCCOCCOCCOCCNc4cccc5c4C(=O)N(C4CCC(=O)NC4=O)C5=O)CC3)s2)o1` (stereo not shown) [THAL-SNS032] displayed an EC50 of 25 ± 2 nM. The compound further returned an SI in [8] (single treatment) of 6. Also, in data set [1] (setting [12]), the CC50 at 7 d was 140 ± 60 nM.

With SY1365, the CC50 in data set [9] is < 100 nM.

CVT-313 showed a CC50 in data set [9] of 5570 ± 50 nM.
